Data: ChEMBL document CHEMBL1130643, “Synthesis of benzanilide derivatives as dual acting agents with alpha 1-adrenoceptor antagonistic action and steroid 5-alpha reductase inhibitory activity” (Bioorg Med Chem Lett, 1998)

Legend:
[1] = molecular target: Adrenergic receptor alpha-1 (Oryctolagus cuniculus); assay: Inhibition of phenylephrine-induced contractions in white rabbit prostate.
[2] = molecular target: T1, Steroid 5-alpha-reductase (Rattus norvegicus, UniProt P24008+P31214); assay: Inhibitory activity against prostatic 5-alpha reductase in Sprague-Dawley rat; assay type: protein assay
T1 sequence (P24008 whole entry): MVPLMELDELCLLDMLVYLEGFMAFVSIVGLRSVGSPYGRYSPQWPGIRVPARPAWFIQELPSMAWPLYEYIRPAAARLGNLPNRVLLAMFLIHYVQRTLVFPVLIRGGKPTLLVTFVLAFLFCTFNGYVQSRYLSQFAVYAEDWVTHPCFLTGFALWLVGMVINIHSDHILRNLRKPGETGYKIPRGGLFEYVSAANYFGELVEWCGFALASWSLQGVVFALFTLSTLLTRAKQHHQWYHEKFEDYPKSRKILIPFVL
T1 sequence (P31214 whole entry): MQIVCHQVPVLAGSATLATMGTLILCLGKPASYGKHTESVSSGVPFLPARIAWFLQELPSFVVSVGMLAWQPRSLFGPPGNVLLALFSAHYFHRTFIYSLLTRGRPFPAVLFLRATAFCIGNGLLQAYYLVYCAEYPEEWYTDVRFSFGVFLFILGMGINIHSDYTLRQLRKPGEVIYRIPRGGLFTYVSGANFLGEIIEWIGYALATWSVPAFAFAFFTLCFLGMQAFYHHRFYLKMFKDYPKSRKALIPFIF

Structure (SMILES) | pA2 [1] | IC50 [2]
COc1ccccc1N1CCN(CCC(Oc2ccc(C(=O)Nc3ccccc3OCCCC(=O)O)cc2)c2ccc(CC(C)C)cc2)CC1 (stereo not given) | 5.7 | 39 nM
COc1ccccc1N1CCN(CCCCOc2ccc(C(=O)Nc3ccccc3OCCCC(=O)O)cc2)CC1 | 7.1 | 43000 nM
COc1ccccc1N1CCN(CCC(Oc2ccc(C(=O)Nc3ccccc3OCCCC(=O)O)cc2)c2ccccc2)CC1 (stereo not given) | 7.6 | 1000 nM
COc1ccccc1N1CCN(CCCCCCOc2ccc(C(=O)Nc3ccccc3OCCCC(=O)O)cc2)CC1 | 7 | 9500 nM
COc1ccccc1N1CCN(CCOc2ccc(C(=O)Nc3ccccc3OCCCC(=O)O)cc2)CC1 | 6.6 | 29000 nM
COc1ccccc1NC(=O)c1ccc(OCCCN2CCN(c3ccccc3OC)CC2)cc1 | 7.1 | 
COc1ccccc1N1CCN(CCCC(Oc2ccc(C(=O)Nc3ccccc3OCCCC(=O)O)cc2)c2ccccc2)CC1 (stereo not given) | 6.5 | 750 nM
COc1ccccc1N1CCN(CCCCC(Oc2ccc(C(=O)Nc3ccccc3OCCCC(=O)O)cc2)c2ccccc2)CC1 (stereo not given) | 6.6 | 910 nM
COc1ccccc1N1CCN(CCCOc2ccc(C(=O)Nc3ccccc3OCCCC(=O)O)cc2)CC1 | 7 | 41000 nM

Now from value to compound:

pA2 [1] | IC50 [2] | Structure (SMILES)
6.7 | 170 nM | COc1ccc(C(CCN2CCN(c3ccccc3OC)CC2)Oc2ccc(C(=O)Nc3ccccc3OCCCC(=O)O)cc2)cc1 (stereo not given)
7.1 | 440 nM | COc1ccccc1N1CCN(CCC(Oc2ccc(NC(=O)c3ccccc3OCCCC(=O)O)cc2)c2ccc(C)cc2)CC1 (stereo not given)
5.2 | 96 nM | COc1ccccc1N1CCN(CCC(Oc2ccc(NC(=O)c3ccccc3OCCCC(=O)O)cc2)c2ccc(CC(C)C)cc2)CC1 (stereo not given)
7.1 | 730 nM | COc1ccccc1N1CCN(CCC(Oc2ccc(NC(=O)c3ccccc3OCCCC(=O)O)cc2)c2ccccc2)CC1 (stereo not given)
6.6 | 360 nM | COc1ccccc1N1CCN(CCC(Oc2ccc(C(=O)Nc3ccccc3OCCCC(=O)O)cc2)c2cccc(C)c2)CC1 (stereo not given)
7.4 | 70 nM | CCc1ccc(C(CCN2CCN(c3ccccc3OC)CC2)Oc2ccc(C(=O)Nc3ccccc3OCCCC(=O)O)cc2)cc1 (stereo not given)
7.8 | 67 nM | COc1ccccc1N1CCN(CCC(Oc2ccc(C(=O)Nc3ccccc3OCCCC(=O)O)cc2)c2ccc(C)cc2)CC1 (stereo not given)
6.7 | 130 nM | CCc1ccc(C(CCN2CCN(c3ccccc3OC)CC2)Oc2ccc(NC(=O)c3ccccc3OCCCC(=O)O)cc2)cc1 (stereo not given)
7 | 210 nM | COc1ccccc1N1CCN(CCC(Oc2ccc(C(=O)Nc3ccccc3OCCCC(=O)O)cc2)c2ccc(Br)cc2)CC1 (stereo not given)
